Laboratory results taken from patent US12472448B2, “Compact hydroxamate-based affinity tags for artificially tagging biological macromolecules” (The Board of Trustees of the Leland Stanford Junior …, priority 2019, dated 2025).

Tests used:
GFP = format: cell-based, S. cerevisiae; details: 365-nm diode, 1 minute
Description: S. cervisae was made to express GFP containing isoazipropyl chloride or isoazibutyl chloride as described above. These cells were illuminated by a 365-nm diode (a Prizmatix Mic-LED-365 powered by a BLCC-02 at 0.5 ampere) for 1 minute and then cryogenically ground. Their protein was run on a denaturing SDS-PAGE gel to look for higher-molecular weight species resulting from crosslinking between the two GFP monomers (see e.g., FIG. 41).

[1] = N-tagging of Alexa-350 ADNGK peptide with orthogonal affinity tags, reverse phase HPLC; details: 5 mM of each N-tag, 4 hours at 37° C., pH 7.5
Description: A peptide with the sequence ADNGK (SEQ ID NO: 1) was purchased with its N-terminal Fmoc protecting group still in place. This peptide was reacted with NHS-activated fluorophore Alexa-350 (ThermoFisher, A10168) before the Fmoc group was removed using piperidine and the peptide was purified by preparative HPLC.
We treated this peptide with the N-tags form examples 7 and 10, either separately or in combination. This labeling done for 4 hours at 37° C. with 5 mM of each N-tag, 100 mM of sodium phosphate buffered to pH 7.5 and 10% acetonitrile. The resulting species were analyzed by reverse phase HPLC (see, e.g., FIG. 14).

GST = GST (Schistosoma japonicum, UniProt P08515); assay: Photo-crosslinking of aziethyl glutathione to GST, whole-protein LCMS; format: biochemical; details: 1 mM, 7 mg/ml GST, 337-nm light, 30 minutes
Sequence of GST (P08515 2-218): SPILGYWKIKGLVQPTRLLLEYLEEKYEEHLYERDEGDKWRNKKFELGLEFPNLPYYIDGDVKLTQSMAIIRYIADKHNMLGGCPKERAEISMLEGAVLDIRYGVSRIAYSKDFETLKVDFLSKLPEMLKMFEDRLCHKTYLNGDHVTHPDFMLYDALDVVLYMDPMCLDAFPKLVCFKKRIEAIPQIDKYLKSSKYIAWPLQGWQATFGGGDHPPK
Description: Aziethyl chloride was anchored to glutathione. 25 mg of glutathione and 5 mg of TCEP were dissolved in 2 ml of methanol, 1 ml of water and 50 ul of TEA. To this were added 41 ul of the aziethyl chloride-alkene mixture synthesized in example 19. The mixture was stirred overnight, lyophilized and resuspended in 2.6 ml of water to make a 30-mM solution. This aziethyl glutathione solution was used without any purification.
7 mg/ml of GST was incubated with 0 or 1 mM of aziethyl glutathione. This mixture was placed beneath 337-nm light source (Laser Science, Inc. VSL-337ND-S) for either 0 or 30 minutes and then subjected to whole-protein LCMS.

[2] = test system: modified RNase H containing a single cysteine; assay: In vitro intraprotein photo-crosslinking, denaturing SDS-PAGE; format: biochemical; details: mercury arc lamp, 310-370 nm
From the text: A modified RNase H containing a single cysteine was expressed, purified, alkylated with isoazipropyl chloride and repurified as above.
The alkylated protein was illuminated with a mercury arc lamp through filters selecting for light in the 310-370-nm range.

[3] = test system: modified RNase H containing a single cysteine; assay: Chemical anchoring of crosslinker to protein cysteine, Ellman's assay; format: biochemical; details: 10 ul crosslinker, 1 hour at 37° C., pH 8.6
Description: A modified RNase H containing a single cysteine was expressed in E. coli and purified and purified by Ni-IMAC and heparin chromatography.
To 2.75 mg of this protein in 20 ml of 100-mM bicine, 1-mM TCEP, 600-mM NaCl, 100-mM KCl, pH 8.6 was added either 0 or 10 ul of isoazipropyl chloride. These mixtures were incubated for 1 hour at 37° C. The proteins were repurified by heparin chromatography to remove TCEP and isoazipropyl chloride, and the number of free cysteines per protein was determined using Ellman's assay.

For `CC1(CCSC[C@H](N)C(=O)O)N=N1` [Isoazibutyl cysteine, isoazibutyl cysteine], the “interprotein crosslinking of the proteins” value (from here on “interprotein crosslinking”) (GFP) was 8%.

With `C[C@@H]1NC(=O)N[C@@H]1CCCCCC(=O)N(C)Cc1cccc(C=O)n1` [compound 10] the “labeling of peptide N-termini” value [1] was “efficiently label the peptides”.

In the case of allylcysteine [reference compound], the “interprotein crosslinking” value (GFP) is reported as “lack of similar crosslinking”.

With aziethyl glutathione the “GST molecules shifted as expected from covalent crosslinking” value (GST) was 40%.

In the case of `O=Cc1cccc(C(=O)NO)n1` [hydroxamate affinity tag], the “labeling of peptide N-termini” value [1] is reported as “efficiently label the peptides”.

With `NC(=O)CI` [iodoacetamide, reference compound] the “appearance of faster-migrating band (intramolecular crosslink)” value [2] was “did not appear”.

In the case of `CC1(CSC[C@H](N)C(=O)O)N=N1` [Isoazipropyl cysteine, isoazipropyl cysteine], the “interprotein crosslinking” value (GFP) is reported as 2%.

With `CC1(CCl)N=N1` [isoazipropyl chloride] the “free cysteines per protein” value [3] was 0.15, the “protein's cysteines anchored by the crosslinker” value [3] was 85% and the “appearance of faster-migrating band (intramolecular crosslink)” value [2] was “new faster-migrating band to appear”.
